# Test results as given in patent US20130005696A1, “BUFADIENOLIDE DERIVATIVES, PREPARING PROCESS THEREOF, COMPOSITION COMPRISING THE SAME AND THE USE THEREOF” (priority 2011, published 2013).
# Where two headings read alike, the source gives them in different places.
# How the values were obtained:
# [1] = tested on: A431 human skin carcinoma cell line; test: In vitro antitumor activity assay (SRB), A431; assay type: cell-based; conditions: A431, 72 h, Table 3
# From the text: (§1) HeLa human cervical carcinoma cell line, A-549 human non-small cell lung carcinoma cell line, NCI-H2228 human lung carcinoma cell line, NCI-H460 human lung carcinoma cell line, MDA-MB-231 human breast carcinoma cell line, MCF-7 human breast carcinoma cell line, Bel-7402 human hepatic carcinoma cell line, Hep3B human hepatic carcinoma cell line, QGY-7703 human hepatic carcinoma cell line, MV-4-11 human leukemic cell line, DAUDI human leukemic cell line, Jurkat human leukemic cell line, A498 renal carcinoma cell line, LoVo human colon carcinoma cell line, HCT1116 human colon carcinoma cell line, A431 human skin carcinoma cell line, PANC-1 human pancreatic carcinoma cell line, U87-MG human brain carcinoma cell line, SH-SY5Y human brain carcinoma cell line, RPMI-8226 human bone carcinoma cell line, HT1080 human fibrosarcoma cell line, PC-3 human prostatic carcinoma cell line, AGS human gastric adenocarcinoma cell line, and BGC-823 human gastric adenocarcinoma cell line were purchased from the Cell Bank of the Chinese Academy of Sciences.
# (§2) The positive control is bufalin (formulated according to the common method), its purity is 98% or more by HPLC-UV and its structure is identified by NMR. The compounds to be tested and the positive control were diluted with normal saline with a concentration gradient of 10^−4 M, 10^−5 M, 10^−6 M, 10^−7 M and 10^−8 M.
# (§3) According to cell growth rate, tumor cells in the log phase of growth were seeded into 96-well culture plates at 100 μL per well, and allowed to attach for 24 hours, followed by addition of a test compound or positive control at 10 μL per well. For each concentration, the test was carried out in triplicate wells. […] Finally, Tris solution was added at 150 μL per well, and the absorbance (A) was measured at a wavelength of 515 nm using a microplate reader. The growth inhibition on tumor cell proliferation was calculated according to the following equation:
# (§4) Growth Inhibition (%)=[(Absorbance of negative control−Absorbance of blank)−(Absorbance of sample−Absorbance of blank)]/(Absorbance of negative control−Absorbance of blank)×100% […]
# [2] = tested on: AGS human gastric adenocarcinoma cell line; test: In vitro antitumor activity assay (SRB), AGS; assay type: cell-based; conditions: 72 h, Table 3
# From the text: as §1, §2, §3, §4
# [3] = tested on: HepG2 human-derived tumor cell line; test: In vitro antitumor activity assay (SRB), HepG2; assay type: cell-based; conditions: HepG2, 72 h, Table 3
# [4] = tested on: Hep3B human hepatic carcinoma cell line; test: In vitro antitumor activity assay (SRB), Hep3B; assay type: cell-based; conditions: 72 h, Table 3
# From the text: as §1, §2, §3, §4
# [5] = tested on: RPMI-8226 human bone carcinoma cell line; test: In vitro antitumor activity assay (SRB), RPMI8226; assay type: cell-based; conditions: RPMI8226, 72 h, Table 3
# From the text: as §1, §2, §3, §4
# [6] = tested on: A498 renal carcinoma cell line; test: In vitro antitumor activity assay (SRB), A498; assay type: cell-based, human; conditions: A498, 72 h, Table 3
# From the text: as §1, §2, §3, §4
# [7] = tested on: MDA-MB-231 human breast carcinoma cell line; test: In vitro antitumor activity assay (SRB), MDA-MB-231; assay type: cell-based; conditions: MDA-MB-231, 72 h, Table 3
# From the text: as §1, §2, §3, §4
# [8] = tested on: MV-4-11 human leukemic cell line; test: In vitro antitumor activity assay (SRB), MV-4-11; assay type: cell-based; conditions: MV-4-11, 72 h, Table 3
# From the text: as §1, §2, §3, §4
# [9] = tested on: PANC-1 human pancreatic carcinoma cell line; test: In vitro antitumor activity assay (SRB), PANC-1; assay type: cell-based; conditions: PANC-1, 72 h, Table 3
# From the text: as §1, §2, §3, §4
# [10] = tested on: U87-MG human brain carcinoma cell line; test: In vitro antitumor activity assay (SRB), U87-MG; assay type: cell-based; conditions: 72 h, Table 3
# From the text: as §1, §2, §3, §4
# [11] = tested on: human non-small cell lung carcinoma A549 xenograft; test: In vivo therapeutic effect against A549 xenograft in nude mice; conditions: for inhibition of growth of human lung carcinoma A549 xenograft, in words: A549 xenograft in nude mice, bufalin at 1.6 mg/kg; for Inhibition Rate (%) / Tumor Weight(g) Mean ± SE: A549 xenograft, after 21 days
# Method: This experiment is to evaluate the in vivo therapeutic effects of compounds bufalin, II1D-06.HCl, II1E-01.HCl and II1B-02.HCl against human-derived lung carcinoma A549 cell xenograft in nude mice.
# Solvent control: 4% DMSO & 2% Tween-80 & 5% PEG-400 solution in normal saline
# Compounds to be tested: bufalin, II1B-02.HCl, II1E-01.HCl, II1D-06.HCl
# Formulating method: the compound was dissolved with DMSO into a stock solution, which was then diluted into an injection with a final DMSO concentration of 4%.
# Positive control: Rapamycin Formulating method: it was formulated into an injection with a final DMSO concentration of 4%.
# (§5) After the tumor size reaches about 200 mm^3, the mice bearing the tumor were grouped randomly into 8 groups according to the tumor size, including the groups of solvent control, positive control rapamycin 5 mg/kg, II1E-01.HCl 2 mg/kg, II1E-01.HCl 4 mg/kg, II1E-01.HCl 6 mg/kg, II1B-02.HCl 4 mg/kg, II1D-06.HCl 4 mg/kg, bufalin 1.6 mg/kg, wherein the dosage selection is based on that the maximum tolerable dosage is 1.6 mg/kg for bufalin and 6 mg/kg for II1E-01.HCl. Rapamycin was administered intravenously once a week (QW) and the other groups were administered intraperitoneally once every other day (QOD). The tumor was weighted after 21 days to calculate the inhibition rate. The equation for calculating inhibition rate (IR) is IR=(WC−WT)/WC×100%, wherein, WC represents the tumor weight of the control group, and WT represents the tumor weight of the treating group.
# [12] = tested on: NCI-H2228 human lung carcinoma cell line; test: In vitro antitumor activity assay (SRB), NCI-H2228; assay type: cell-based; conditions: NCI-H2228, 72 h, Table 3
# From the text: as §1, §2, §3, §4
# [13] = tested on: A-549 human non-small cell lung carcinoma cell line; test: In vitro antitumor activity assay (SRB), A549; assay type: cell-based
# From the text: as §1, §2
# According to cell growth rate, tumor cells in the log phase of growth were seeded into 96-well culture plates at 100 μL per well, and allowed to attach for 24 hours, followed by addition of a test compound or positive control at 10 μL per well. For each concentration, the test was carried out in triplicate wells. Solvent control wells with addition of normal saline into cell culture and a blank well containing only cell culture medium but without cells for zeroing were also included. The tumor cells were incubated for 72 hours at 37° C. under 5% CO2, and then the culture medium (RPMI-1640) was removed. The cells were fixed with 10% cool TCA by incubating for 1 h at 4° C., washed with distilled water for 5 times, and dried naturally in the air. A solution of SRB (Sigma) (4 mg/mL) in 1% glacial acetic acid was added at 100 μL per well, and the cells were stained for 15 minutes at room temperature, and the supernatant was discarded. The plates were washed for 5 times with 1% acetic acid, and dried in air. Finally, Tris solution was added at 150 μL per well, and the absorbance (A) was measured at a wavelength of 515 nm using a microplate reader. The growth inhibition on tumor cell proliferation was calculated according to the following equation:
# Growth Inhibition (%)=[(Absorbance of negative control−Absorbance of blank)−(Absorbance of sample−Absorbance of blank)]/(Absorbance of negative control−Absorbance of blank)×100%
# Drug concentration: 10 μM, 1 μM, 0.1 μM, 10 nM, 1 nM, 0.1 nM.
# IC50 was fitted by GraphPad Prism 4.
# [14] = Maximum tolerable dosage (basis of dosage selection); conditions: in vivo
# Method: as §5
compound,measurement,setting,value
C[C@]12CC[C@H](OC(=O)NC3CCNCC3)C[C@H]1CC[C@@H]1[C@@H]2CC[C@]2(C)[C@@H](c3ccc(=O)oc3)CC[C@]12O.Cl [II1E-01•HCl],IC50,[1],3.31 ± 0.09 nM
same,IC50,[2],9.35 ± 0.53 nM
same,IC50,[3],0.33 ± 0.02 nM
same,IC50,[4],> 1000 nM
same,IC50,[5],1.71 ± 0.03 nM
same,IC50,[6],0.37 ± 0.05 nM
same,IC50,[7],7.31 ± 0.21 nM
same,IC50,[8],0.64 ± 0.11 nM
same,IC50,[9],0.57 ± 0.06 nM
same,IC50,[10],1.98 ± 0.3 nM
same,"inhibition of growth of human lung carcinoma A549 xenograft, in words",[11],significantly inhibit the growth
same,Inhibition Rate (%),[11]; 2 mg/kg ip QOD,32.43%
same,Tumor Weight(g) Mean ± SE,[11]; 2 mg/kg ip QOD,1.1375 ± 0.1044 g
same,Inhibition Rate (%),[11]; 4 mg/kg ip QOD,70.57%
same,Tumor Weight(g) Mean ± SE,[11]; 4 mg/kg ip QOD,0.4953 ± 0.0301 g
same,Inhibition Rate (%),[11]; 6 mg/kg ip QOD,87.70%
same,Tumor Weight(g) Mean ± SE,[11]; 6 mg/kg ip QOD,0.2070 ± 0.0193 g
same,IC50,[12],1.62 ± 0.5 nM
same,IC50,"[13]; A549, 72 h, Table 3, read-out: IC50 (72 h), A549",0.4 ± 0.22 nM
same,maximum tolerable dosage,[14],6 mg/kg
"C[C@]12CC[C@H](O)C[C@H]1CC[C@@H]1[C@@H]2CC[C@]2(C)[C@@H](c3ccc(=O)oc3)CC[C@]12O [bufalin, reference compound]",IC50,"[1]; Homo sapiens, A-431",26.6 ± 5.35 nM
same,IC50,[2]; Homo sapiens,51.8 ± 1.34 nM
same,IC50,[3]; Homo sapiens,6.02 ± 0.71 nM
same,IC50,[4]; Homo sapiens,> 1000 nM
same,IC50,"[5]; Homo sapiens, RPMI-8226",13.5 ± 0.82 nM
same,IC50,[6]; Homo sapiens,6.41 ± 0.75 nM
same,IC50,[7]; Homo sapiens,28.7 ± 1.66 nM
same,IC50,"[8]; Homo sapiens, MV4-11",6.26 ± 2.22 nM
same,IC50,[9]; Homo sapiens,9.88 ± 0.27 nM
same,IC50,"[10]; Homo sapiens, U-87 MG",13 ± 1.74 nM
same,"inhibition of growth of human lung carcinoma A549 xenograft, in words",[11],did not express strong inhibitory activity
same,Inhibition Rate (%),[11]; 1.6 mg/kg ip QOD,8.99%
same,Tumor Weight(g) Mean ± SE,[11]; 1.6 mg/kg ip QOD,1.5320 ± 0.0624 g
same,IC50,[12]; Homo sapiens,16.1 ± 2.51 nM
same,IC50,"[13]; Homo sapiens, A549, 72 h, Table 3, read-out: IC50 (72 h), A549",8.74 ± 2.52 nM
same,IC50,"[13]; Homo sapiens, A549, Table 2, read-out: IC50, inhibition of cell proliferation, A549",6.53 ± 1.64 nM
same,maximum tolerable dosage,[14]; mouse,1.6 mg/kg
